Assay results reported in PubChem BioAssay (NCI).
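Values below derive from 48-hour exposures of cells grown in 96-well plates, with endpoints linearly interpolated between the two concentrations bracketing the appropriate inhibition level. The concentration for 50% growth inhibition is given as GI50. At the TGI there is no net growth.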

Columns and labels:
Test in all cases: DTP human tumour cell line panel, 48 h
[1] = tested on: T-47D breast
[2] = tested on: OVCAR-4 ovarian
[3] = tested on: MOLT-4 leukemia
[4] = tested on: EKVX NSCLC
[5] = tested on: SR leukemia
[6] = tested on: RPMI-8226 leukemia
[7] = tested on: DU-145 prostate
[8] = tested on: OVCAR-3 ovarian
[9] = tested on: K-562 leukemia
[10] = tested on: SW-620 colon
[11] = tested on: SK-MEL-28 melanoma
[12] = tested on: SNB-19 CNS
[13] = tested on: KM12 colon
[14] = tested on: CAKI-1 renal
[15] = tested on: SF-268 CNS
[16] = tested on: MALME-3M melanoma
[17] = tested on: SK-MEL-2 melanoma
[18] = tested on: SN12C renal
[19] = tested on: NCI-H460 lung
[20] = tested on: SNB-75 CNS
[21] = tested on: RXF 393 renal
[22] = tested on: ACHN renal
[23] = tested on: HS 578T breast
[24] = tested on: MCF7 breast
[25] = tested on: SF-539 CNS
[26] = tested on: HCC-2998 colon
[27] = tested on: NCI-H522 lung
[28] = tested on: BT-549 breast
[29] = tested on: HT29 colon
[30] = tested on: NCI-H23 lung
[31] = tested on: SF-295 CNS
[32] = tested on: 786-0 renal
[33] = tested on: HOP-62 NSCLC
[34] = tested on: SK-MEL-5 melanoma
[35] = tested on: UACC-62 melanoma
[36] = tested on: CCRF-CEM leukemia
[37] = tested on: UACC-257 melanoma
[38] = tested on: M14 melanoma
[39] = tested on: NCI-H226 lung
[40] = tested on: HOP-92 NSCLC
[41] = tested on: U251 CNS
[42] = tested on: A549 NSCLC
[43] = tested on: HL-60(TB) leukemia
[44] = tested on: A498 renal
[45] = tested on: MDA-MB-468 breast
[46] = tested on: TK-10 renal
[47] = tested on: LOX IMVI melanoma
[48] = tested on: MDA-MB-231 breast
[49] = tested on: UO-31 renal
[50] = tested on: COLO 205 colon
[51] = tested on: MDA-MB-435
[52] = tested on: OVCAR-5 ovarian
[53] = tested on: PC-3 prostate
[54] = tested on: SK-OV-3 ovarian
[55] = tested on: HCT-15 colon
[56] = tested on: IGROV1 ovarian
[57] = tested on: OVCAR-8 ovarian

O=C1Nc2cc(Cl)ccc2/C1=C/c1ccc(OCc2ccc(Br)cc2F)cc1
GI50 [1]: 4.19 µM | TGI [1]: 18.3 µM | GI50 [2]: 1.9 µM | TGI [2]: 3.98 µM | GI50 [3]: 3.98 µM | TGI [3]: 14.4 µM | GI50 [4]: 3.69 µM | TGI [4]: 17.1 µM | GI50 [5]: 2.07 µM | TGI [5]: 4.45 µM | GI50 [6]: 4.41 µM | TGI [6]: 18.1 µM | GI50 [7]: 3.39 µM | TGI [7]: 10.1 µM | GI50 [8]: 2.49 µM | TGI [8]: 5.08 µM | GI50 [9]: 4.03 µM | TGI [9]: 17 µM | GI50 [10]: 2.02 µM | TGI [10]: 4.18 µM | GI50 [11]: 2.18 µM | TGI [11]: 4.92 µM | GI50 [12]: 2.3 µM | TGI [12]: 5.72 µM | GI50 [13]: 3.54 µM | TGI [13]: 11.5 µM | GI50 [14]: 1.7 µM | TGI [14]: 3.46 µM | GI50 [15]: 2.67 µM | TGI [15]: 6.35 µM | GI50 [16]: 1.82 µM | TGI [16]: 3.83 µM | GI50 [17]: 7.22 µM | TGI [17]: 21.7 µM | GI50 [18]: 5.31 µM | TGI [18]: 19.6 µM | GI50 [19]: 2.02 µM | TGI [19]: 3.74 µM | GI50 [20]: 2.19 µM | TGI [20]: 7 µM | GI50 [21]: 2.73 µM | TGI [21]: 9.28 µM | GI50 [22]: 1.92 µM | TGI [22]: 3.83 µM | GI50 [23]: 2.05 µM | TGI [23]: 6.6 µM | GI50 [24]: 2.11 µM | TGI [24]: 14.2 µM | GI50 [25]: 1.92 µM | TGI [25]: 3.59 µM | GI50 [26]: 15.4 µM | TGI [26]: 37.7 µM | GI50 [27]: 1.99 µM | TGI [27]: 4.89 µM | GI50 [28]: 1.92 µM | TGI [28]: 4.26 µM | GI50 [29]: 4.69 µM | TGI [29]: 19.5 µM | GI50 [30]: 1.79 µM | TGI [30]: 4.08 µM | GI50 [31]: 2.07 µM | TGI [31]: 4.36 µM | GI50 [32]: 1.9 µM | TGI [32]: 3.5 µM | GI50 [33]: 1.9 µM | TGI [33]: 4.21 µM | GI50 [34]: 3.47 µM | TGI [34]: 12.3 µM | GI50 [35]: 1.82 µM | TGI [35]: 3.8 µM | GI50 [36]: 3.86 µM | TGI [36]: 14.6 µM | GI50 [37]: 9.42 µM | TGI [37]: 26.3 µM | GI50 [38]: 2.91 µM | TGI [38]: 9.02 µM | GI50 [39]: 2.07 µM | TGI [39]: 5.53 µM | GI50 [40]: 2.28 µM | TGI [40]: 6.17 µM | GI50 [41]: 1.92 µM | TGI [41]: 3.62 µM | GI50 [42]: 2.08 µM | TGI [42]: 4.35 µM | GI50 [43]: 17.7 µM | TGI [43]: 53.6 µM | GI50 [44]: 2.23 µM | TGI [44]: 4.59 µM | GI50 [45]: 2.24 µM | TGI [45]: 4.65 µM | GI50 [46]: 2.73 µM | TGI [46]: 7.15 µM | GI50 [47]: 1.73 µM | TGI [47]: 3.61 µM | GI50 [48]: 2.33 µM | TGI [48]: 5.92 µM | GI50 [49]: 1.55 µM | TGI [49]: 4.65 µM | GI50 [50]: 4.03 µM | TGI [50]: 17 µM | GI50 [51]: 2.87 µM | TGI [51]: 8.54 µM | GI50 [52]: 8.24 µM | TGI [52]: 34.3 µM | GI50 [53]: 1.91 µM | TGI [53]: 4.46 µM | GI50 [54]: 3.81 µM | TGI [54]: 13.5 µM | GI50 [55]: 3.4 µM | TGI [55]: 13 µM | GI50 [56]: 2.43 µM | TGI [56]: 6.3 µM | GI50 [57]: 3.31 µM | TGI [57]: 10.4 µM
